Measured values: patent US20050271643A1, “Bacterial strains, compositions including same and probiotic use thereof” (priority 2003, published 2005)

Test system: B. licheniformis PA
Test: Antibiogram by disc diffusion method
Format: cell-based, Bacillus licheniformis
Details: strain B. licheniformis PA

Compound | Sensitivity or resistance of the strain to the antibiotic (in words)
C[C@H]1[C@H](NC(=O)/C(=N\OC(C)(C)C(=O)O)c2csc(N)n2)C(=O)N1S(=O)(=O)O [Aztreonam] | resistant
CC1(C)S[C@@H]2[C@H](NC(=O)Cc3ccccc3)C(=O)N2[C@H]1C(=O)O [Benzylpenicillin] | resistant
CC(C)(O/N=C(\C(=O)N[C@@H]1C(=O)N2C(C(=O)[O-])=C(C[n+]3ccccc3)CS[C@H]12)c1csc(N)n1)C(=O)O [Ceftazidim] | resistant
Cc1onc(-c2ccccc2)c1C(=O)N[C@@H]1C(=O)N2[C@@H]1SC(C)(C)[C@@H]2C(=O)O [Oxacillin] | resistant
Polymyxin E | resistant
